One experiment deals with glioblastoma cells. As to the kind of experiment: glioblastoma cell proliferation, cell line not stated (summary statements). The experiment is classed as cell-based. Conditions: read-out: IC50 for the proliferation inhibition.
For another experiment, the system named is U87 EGFRvIII. Put plainly: glioblastoma proliferation assay (MTT), U87 EGFRvIII; selectivity of the inhibition. Conditions: Homo sapiens; U87 EGFRvIII, 72 hours, MTT, at least 3 times; read-out: IC50 values of the inhibition of the proliferation in the cell line U87 EGFRvIII. The format is cell-based, human. Here is the method: (§1) U87 wt and U87 EGFRvIII cells were a gift from Prof. Dr. Andreas H. Jacobs, European Institute for Molecular Imaging, Münster, Germany. The cells were maintained in DMEM (PAA) supplemented with 1% FCS (Lonza), 1% Penicillin/Streptomycin (PAA) and 110 μg/ml Sodiumpyruvat (Sigma-Aldrich) and were grown at 37° C., 5% CO2.
(§2) 300 cells per 96 well were seeded into a clear, flat bottom 96 well plate (TPP). After 24 hours the cells were washed twice in 1×DPBS (PAA) and treated with concentrations ranging from 2.5 nM to 2 μM of the phenyl diamides according to formulas (5) to (18) or 5 μM of the control compound (XH1009) in DMEM (PAA) supplemented with 1% FCS (Lonza), 1% Penicillin/Streptomycin (PAA) and 110 μg/ml Sodiumpyruvat (Sigma-Aldrich). Controls were treated with Dimethyl sulfoxide (DMSO) as solvent in an end concentration of 0.4% (v/v). Medium was changed daily.
(§3) After 72 hours cell proliferation was quantified by using a commercially available 3-(4,5-dimethylthiazol-2-yl)-2,5diphenyltetrazolium bromide (MTT) assay (Cell Titer 96® Non-Radioactive Cell Proliferation Assay, Promega) as described in the manufacture's protocol. Briefly, 15 μl of Dye solution was added directly into the 100 μl media of the cells. After 4 hours incubation at 37° C., 5% CO2, 100 μl solubilization solution was added to solubilize the formazan product and the absorbance at 570 nm was measured in a Varioscan microplate reader (Thermo Scientific). All assays were performed at least in triplicates. For calculation of the relative proliferation rate/cell number the mean absorbance in the solvent DMSO only treated cells was set as 1. Results are given as the mean+/−standard error.
(§4) Further, the IC50 values of the inhibition of the proliferation was determined. The IC50 value was determined by plotting the relative cell number against the added concentrations of the amide. The IC50 value corresponds to the concentration of the phenyl diamides at which the proliferation is reduced to half. The lower the IC50 value, the more strongly the phenyl diamide inhibits proliferation.

Another experiment relates to U87 wt. As to the kind of experiment: glioblastoma proliferation assay (MTT), U87 wt. The experiment is classed as cell-based. Conditions: Homo sapiens, U87WT, 72 hours, at least 3 times, read-out: IC50 values of the inhibition of the proliferation in the cell line U87 wt. The protocol:
The effect of the phenyl diamides according to formulas (5) to (18) on the proliferation of Glioblastoma cells was tested in two pairs of established human glioblastoma cell lines, Gli36 and U87. Human Gli36 wt, U87 wt and U87 EGFRvIII cells were a gift from Prof. Dr. Andreas H. Jacobs, European Institute for Molecular Imaging, Munster, Germany. The cells were maintained in DMEM (PAA) supplemented with 10% fetal calf serum (FCS, Lonza), 1% Penicillin/Streptomycin (PAA) and 110 μg/ml Sodiumpyruvat (Sigma-Aldrich) and were grown at 37° C., 5% CO2.
3000 cells per 96 well were seeded into a clear, flat bottom 96 well plate (TPP). After 24 hours the cells were washed twice in 1×DPBS (PAA) and treated with 250 nM of the phenyl diamides according to formulas (5) to (18) in DMEM (PAA) supplemented with 1% FCS (Lonza), 1% Penicillin/Streptomycin (PAA) and 110 μg/ml Sodiumpyruvat (Sigma-Aldrich). Controls were treated with Dimethyl sulfoxide (DMSO) as solvent in an end concentration of 0.4% (v/v). A further control was performed with the control compound according to formula (XH1009). Medium was changed daily.
as §3
The FIGS. 2 and 3 show the relative cell numbers in the wild type glioblastoma cell line U87 wt (FIG. 2) and Gli36 wt (FIG. 3) normalized to the DSMO treated control after 72 h incubation with the respective phenyl diamides according to formulas (5) to (18), the DSMO treated control compound determined with a MTT proliferation essay. Data were normalized with the exchange in the solvent (DMSO) only control set as 1 and represent the mean values of duplicates, error bars correspond to standard error of the mean (SEM).
as §1, §2, §4

Experiment [1] has as its target T1, sec7-domain of cytohesin-2 (ARNO) (Homo sapiens, UniProt Q99418).
T1 construct: ARNO-Sec7 (amino acids 50-255 of ARNO) were expressed in Escherichia coli; made in house; host or cells: Escherichia coli
T1 sequence (Q99418 50-255): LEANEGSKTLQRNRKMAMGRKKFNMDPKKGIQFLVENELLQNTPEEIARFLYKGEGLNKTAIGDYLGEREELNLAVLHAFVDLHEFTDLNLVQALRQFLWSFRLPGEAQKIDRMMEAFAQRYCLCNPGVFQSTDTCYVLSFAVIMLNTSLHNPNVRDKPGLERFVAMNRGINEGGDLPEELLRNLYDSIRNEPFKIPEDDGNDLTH
Put plainly: guanine nucleotide exchange assay (GDP/GTP exchange on [Δ17]ARF1, tryptophan fluorescence). The format is biochemical. To be noted: isolated Sec-7 domain, each experiment at least 8 times, read-out: IC50 values measured for the isolated Sec-7 domain of cytohesin-2. Here is the method: The inhibition of the exchange activity of the sec7-domain of cytohesin-2 (ARNO) of the phenyl diamides according to formulas (5) to (18) was determined by a guanine nucleotide exchange assay.
The sec7-domain of cytohesin-2 (ARNO) and [Δ17]ARF1, a mutant of the ADP-ribosylation factor (ARF) protein, were subcloned into pET15 vectors (Novagen) as described in Hafner, M. et al. Nature 444, 941-944 (2006). N-terminal truncated [Δ17]ARF1 (amino acids 18-181), lacking the first 17 amino acids and ARNO-Sec7 (amino acids 50-255 of ARNO) were expressed in Escherichia coli and purified by Ni-NTA chromatography (Ni-NTA agarose, Qiagen).
The exchange from […] (GDP) to […] (GTP) induces a conformation change of the ribosylation factor, as a result of which the fluorescence of a tryptophan radical of the protein is increased. GDP/GTP exchange was measured on [Δ17]ARF1 by tryptophan fluorescence because a large increase in intrinsic fluorescence of ARF occurs upon exchange of GDP for GTP. All measurements were performed in PBS (137 mM NaCl, 2.7 mM KCl, 10.2 mM Na2HPO4, 1.8 mM KH2PO4) pH 7.4, 3 mM MgCl2 at 37° C.
[Δ17]ARF1 (1 μM) in PBS without MgCl2 was preincubated with 80 μM GDP in the presence of 2 mM ethylenediaminetetraacetic acid (EDTA) for 15 minutes. The bound GDP was stabilized by addition of MgCl2 at a final concentration of 3 mM and incubation for 5 minutes. For each exchange reaction 250 nM [Δ17]ARF1 was mixed with 10 nM ARNO-Sec7 (total volume 200 μl) in the absence or presence of the phenyl diamides according to formulas (5) to (18). The reaction was started by injection of 50 μM GTP.
The tryptophan fluorescence was measured at excitation and emission wavelength of 280 nm and 340 nm respectively. All fluorescent measurements were performed with a Varioskan microplate reader (Thermo Scientific), in 96-well plates. For analysis all data were fitted by linear regression.
The relative exchange rate was determined by comparing the initial linear rise of the fluorescence signal (exchange rate) in the presence of 2.5 μM of the phenyl diamides according to formulas (5) to (18) with the exchange rate in the presence of the solvent Dimethyl sulfoxide (DMSO), 0.4% end concentration, only. A further control was performed with the control compound according to formula (XH1009) as indicated below: […]
Further, the IC50 value of the inhibition of the sec7-domain of the isolated cytohesin-2 was determined. The IC50 value was determined by plotting the initial linear rise of the fluorescence signal against the added concentrations of the amide. The IC50 value corresponds to the concentration of the phenyl diamides at which the activity of the protein is reduced to half. The lower the IC50 value, the more strongly the phenyl diamide inhibits the sec7-domain.

pIC50: −log10 of the molar value. A value given as a limit tells only on which side of the number the result lay.

For `CC(C)(C)c1ccc(C(=O)Nc2ccc(NC(=O)c3ccc4c(c3)OCCO4)cc2)cc1` [formula (18)], the pIC50 with glioblastoma cells was above 5.70; in the experiment on U87 EGFRvIII, 6.98; in the experiment on U87 wt, 6.53; in experiment [1] it was 5.87.

For the origin of these results see patent US20130245275A1, “PHENYL DIAMIDES AND A PHARMACEUTICAL PREPARATION COMPRISING PHENYL DIAMIDES” (Rheinische Friedrich-Wilhelms Universitaet Bonn, priority 2010, published 2013).
